From the supplement of paper PMC10307832

Key:
Test in all cases: relative viability (nuclei count vs DMSO), 5 days (fraction); higher = more cells survive
Doxorubicin + Dasatinib = compound: COc1cccc2c1C(=O)c1c(O)c3c(c(O)c1C2=O)C[C@@](O)(C(=O)CO)C[C@@H]3O[C@H]1C[C@H](N)[C@H](O)[C@H](C)O1 [Doxorubicin] + Cc1nc(Nc2ncc(C(=O)Nc3c(C)cccc3Cl)s2)cc(N2CCN(CCO)CC2)n1 [Dasatinib] (partner 0.075 µM)
Method in brief: (§1)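 Lung cancer cell lines in 1536-well plates got either a single drug or a fixed anchor-drug dose together with five library-drug doses (not always all listed) in √10 steps, by pin tool, on the day after seeding. Nuclei were counted after 5 days, and relative viability is the treated-to-vehicle ratio of nuclei counts. Values are medians of duplicate plates.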

BAY61-3606 + Bortezomib = compound: COC1=C(C=C(C=C1)C2=CC3=NC=CN3C(=N2)NC4=C(C=CC=N4)C(=O)N)OC [BAY61-3606] + CC(C)C[C@H](NC(=O)[C@H](Cc1ccccc1)NC(=O)c1cnccn1)B(O)O [Bortezomib] (partner 0.002 µM)
Method in brief: as §1

BAY61-3606 + Decitabine = compound: COC1=C(C=C(C=C1)C2=CC3=NC=CN3C(=N2)NC4=C(C=CC=N4)C(=O)N)OC [BAY61-3606] + Nc1ncn([C@H]2C[C@H](O)[C@@H](CO)O2)c(=O)n1 [Decitabine] (partner 2 µM)
Method in brief: as §1

Doxorubicin + Luminespib = compound: COc1cccc2c1C(=O)c1c(O)c3c(c(O)c1C2=O)C[C@@](O)(C(=O)CO)C[C@@H]3O[C@H]1C[C@H](N)[C@H](O)[C@H](C)O1 [Doxorubicin] + CCNC(=O)c1noc(-c2cc(C(C)C)c(O)cc2O)c1-c1ccc(CN2CCOCC2)cc1 [Luminespib] (partner 0.01 µM)
Method in brief: as §1

Cell Line | relative viability (Doxorubicin + Dasatinib; first compound 0.001 µM) | relative viability (Doxorubicin + Dasatinib; first compound 0.003162 µM) | relative viability (Doxorubicin + Dasatinib; first compound 0.01 µM) | relative viability (Doxorubicin + Dasatinib; first compound 0.03162 µM) | relative viability (Doxorubicin + Dasatinib; first compound 0.1 µM) | relative viability (BAY61-3606 + Bortezomib; first compound 0.02 µM) | relative viability (BAY61-3606 + Bortezomib; first compound 0.06325 µM) | relative viability (BAY61-3606 + Bortezomib; first compound 0.2 µM) | relative viability (BAY61-3606 + Bortezomib; first compound 0.6325 µM) | relative viability (BAY61-3606 + Bortezomib; first compound 2 µM) | relative viability (BAY61-3606 + Decitabine; first compound 0.02 µM) | relative viability (BAY61-3606 + Decitabine; first compound 0.06325 µM) | relative viability (BAY61-3606 + Decitabine; first compound 0.2 µM) | relative viability (BAY61-3606 + Decitabine; first compound 0.6325 µM) | relative viability (BAY61-3606 + Decitabine; first compound 2 µM) | relative viability (Doxorubicin + Luminespib; first compound 0.001 µM) | relative viability (Doxorubicin + Luminespib; first compound 0.003162 µM) | relative viability (Doxorubicin + Luminespib; first compound 0.01 µM) | relative viability (Doxorubicin + Luminespib; first compound 0.03162 µM) | relative viability (Doxorubicin + Luminespib; first compound 0.1 µM)
201T | 0.537 | 0.636 | 0.561 | 0.583 | 0.546 | 1.03 | 1.1 | 1.09 | 1.13 | 1.09 | 0.87 | 0.923 | 0.864 | 0.896 | 0.834 | 1.03 | 1.08 | 1.04 | 1.01 | 1.11
A549 |  |  |  |  |  |  |  |  |  |  | 0.222 | 0.261 | 0.224 | 0.237 | 0.198 |  |  |  |  | 
A-427 | 0.745 | 0.743 | 0.621 | 0.721 | 0.673 | 1.04 | 0.889 | 0.994 | 1.05 | 0.871 | 0.579 | 0.561 | 0.565 | 0.611 | 0.622 | 0.803 | 0.784 | 0.866 | 0.656 | 0.64
ABC-1 | 0.612 | 0.56 | 0.511 | 0.33 | 0.224 | 0.291 | 0.308 | 0.35 | 0.427 | 0.284 | 1.04 | 1.08 | 0.957 | 1.22 | 0.97 | 0.484 | 0.418 | 0.347 | 0.339 | 0.213
BEN | 0.366 | 0.296 | 0.329 | 0.294 | 0.418 | 0.99 | 0.829 | 0.764 | 0.799 | 0.931 | 0.798 | 0.688 | 0.77 | 0.769 | 0.755 | 0.368 | 0.39 | 0.317 | 0.277 | 0.283
CAL-12T | 0.302 | 0.461 | 0.346 | 0.195 | 0.118 | 1.2 | 0.939 | 0.862 | 0.78 | 0.799 |  |  |  |  |  | 0.523 | 0.394 | 0.555 | 0.289 | 0.239
COR-L23 | 0.466 | 0.629 | 0.486 | 0.27 | 0.128 | 1.06 | 1.12 | 0.934 | 0.962 | 0.714 | 0.398 | 0.441 | 0.455 | 0.485 | 0.363 | 0.678 | 0.637 | 0.567 | 0.163 | 0.147
COR-L 105 | 0.431 | 0.355 | 0.323 | 0.257 | 0.261 | 0.85 | 0.688 | 0.622 | 0.807 | 0.388 | 0.764 | 0.672 | 0.543 | 0.63 | 0.475 | 0.678 | 0.754 | 0.691 | 0.595 | 0.363
Calu-6 |  |  |  |  |  | 1.12 | 1.15 | 1.06 | 1.01 | 0.831 |  |  |  |  |  |  |  |  |  | 
ChaGo-K-1 | 0.633 | 0.62 | 0.56 | 0.479 | 0.543 | 1.22 | 0.933 | 1.03 | 0.917 | 1.1 | 0.53 | 0.543 | 0.479 | 0.51 | 0.531 | 0.614 | 0.592 | 0.651 | 0.52 | 0.54
EBC-1 |  |  |  |  |  | 0.571 | 0.632 | 0.616 | 0.569 | 0.459 |  |  |  |  |  |  |  |  |  | 
EKVX | 0.581 | 0.504 | 0.601 | 0.539 | 0.501 | 1.12 | 1.09 | 1.03 | 1.16 | 1.06 | 0.362 | 0.344 | 0.318 | 0.349 | 0.328 | 0.784 | 1.02 | 0.828 | 0.847 | 0.834
EMC-BAC-2 | 0.357 | 0.316 | 0.263 | 0.171 | 0.12 | 1.11 | 1.13 | 1.06 | 1.09 | 1.08 | 1.07 | 1.06 | 1.04 | 1.19 | 0.986 | 1.25 | 1.18 | 1.04 | 0.551 | 0.425
EPLC-272H | 0.41 | 0.418 | 0.371 | 0.417 | 0.343 | 1.01 | 0.931 | 0.915 | 0.958 | 0.951 | 0.409 | 0.403 | 0.369 | 0.396 | 0.33 | 0.209 | 0.262 | 0.339 | 0.259 | 0.253
H3255 | 0.359 | 0.388 | 0.436 | 0.333 | 0.33 | 0.932 | 0.611 | 0.724 | 0.822 | 0.725 | 0.529 | 0.571 | 0.677 | 0.779 | 0.509 | 0.982 | 0.84 | 0.841 | 0.75 | 0.829
